Test results: patent EP1510211A1, “Pharmaceutical composition comprising N-retinyl-N-retinylidene Ethanolamine (A2E), isoforms of A2E or derivatives thereof” (Lynkeus Biotech GmbH, priority 2003, dated 2005)

Experiments:
[1] = tested on: porcine primary retinal pigment epithelial cells (RPE); assay: Apoptosis by Cell Death ELISA Plus Kit in primary RPE cells; format: cell-based
Protocol: (§1) RPE, ARPE-19, and MDCK-F1 cells are exposed to both PG (0, 10, 50 µg/ml) and A2E (0, 15 or 20 µM) for 4 hrs. […] RPE, ARPE-19, and MDCK-F1 cells are exposed to both PG (0, 10, 50 µg/ml) and iso-A2E (0, 15 or 20 µM) under the influence of light for 4 hrs. Then they are washed 3 times with PBS and the apoptosis is determined by Cell Death ELISA Plus Kit (Roche, Mannheim, Germany)
(§2) As an example, the apoptotic effect of A2E on porcine primary retinal pigment epithelial cells (RPE), and the cell lines ARPE-19 and MDCK-F1 cells is analyzed. • Example 1 describes the apoptotic effect of A2E on RPE, ARPE-19, and MDCK-F1 cells. The cells are exposed to 0, 15 and 30 µM of A2E for 2, 4, 6 and 22 hrs. […] Then they are washed 3 times with PBS and the apoptosis is determined by Cell Death ELISA Plus Kit (Roche, Mannheim, Germany). • Example 3 describes the apoptotic effect of A2E on RPE, ARPE-19, and MDCK-F1 cells after application of iso-A2E and exposure in light (photo-isomerization). […] Then they are washed 3 times with PBS and the apoptosis is determined by Cell Death ELISA Plus Kit (Roche, Mannheim, Germany) (see figure 4).
(§3) RPE and ARPE-19 cells: Primary porcine retinal pigment epithelial cells were isolated as previously described. […] Detection of apoptosis: Apoptosis was detected by Cell Death ELISA Plus Kit (Roche, Mannheim, Germany). […]

ARPE-19 cells = assay: Apoptosis by Cell Death ELISA Plus Kit in ARPE-19 cells; format: cell-based, human
Protocol: as §1, §2, §3

MDCK-F1 cells = assay: Apoptosis by Cell Death ELISA Plus Kit in MDCK-F1 cells; format: cell-based, canine
Protocol: as §1, §2, §3

[2] = PG (0, 10, 50 µg/ml) together with A2E (0, 15 or 20 µM) for 4 hrs, Figure 3
[3] = PG (0, 10, 50 µg/ml) together with iso-A2E (0, 15 or 20 µM) under the influence of light for 4 hrs, Figure 4

L-A-Phosphatidyl-DL-Glycerol sodium [PG]
protective effect: protective effect regarding the apoptotic effect of A2E [1, 2] | protective effect regarding the apoptotic effect of photo-isomerization of iso-A2E [1, 3] | protective effect regarding the apoptotic effect of A2E (ARPE-19 cells; [2]) | protective effect regarding the apoptotic effect of photo-isomerization of iso-A2E (ARPE-19 cells; [3]) | protective effect regarding the apoptotic effect of A2E (MDCK-F1 cells; [2]) | protective effect regarding the apoptotic effect of photo-isomerization of iso-A2E (MDCK-F1 cells; [3])
